Test results taken from patent publication US20170050957A1, “4-AMINO-6-(HETEROCYCLIC)PICOLINATES AND 6-AMINO-2-(HETEROCYCLIC)PYRIMIDINE-4-CARBOXYLATES AND THEIR USE AS HERBICIDES” (Dow AgroSciences LLC, priority 2013, published 2017).
Like-named read-outs stand apart in the source and are kept apart here. Each block holds one compound with its values, some of them ahead of it.

Experiments:
[1] = tested on: Key Broadleaf Weed and Crop Species; experiment: Post-emergent Test II herbicidal activity (Table 15); assay type: in vivo; conditions: post-emergence, 336 h, 14 d; for pest or weed control at 35 g/ha: 35 g ai/ha; for pest or weed control at 70 g/ha: 70 g ai/ha; for pest or weed control at 140 g/ha: 140 g ai/ha
Procedure, shortened: (§1)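 Visual injury rating (0 = none, 100% = complete kill) made 14 d after treatment, relative to untreated plants. Compounds in an acetone/DMSO/aqueous crop-oil/surfactant spray, at top rate and serial 1/2×-1/16× rates, were applied at 187 L/ha overhead to first-second true leaf plants raised 7-21 d in greenhouse.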

[2] = tested on: Key Grass and Sedge Weeds as well as Grass Crops; experiment: Post-emergent Test II herbicidal activity (Table 16); assay type: in vivo; conditions: post-emergence, 336 h; for pest or weed control at 35 g/ha: 35 g ai/ha; for pest or weed control at 70 g/ha: 70 g ai/ha; for pest or weed control at 140 g/ha: 140 g ai/ha
Procedure, shortened: as §1

[3] = Abutilon theophrasti, velvetleaf (Abutilon theophrasti), read-out: Visual Growth Reduction (%) 14 Days After Application, ABUTH
[4] = Amaranthus retroflexus, redroot pigweed (Amaranthus retroflexus), read-out: Visual Growth Reduction (%) 14 Days After Application, AMARE
[5] = Brassica napus, oilseed rape, canola (Brassica napus), read-out: Visual Growth Reduction (%) 14 Days After Application, BRSNN
[6] = Chenopodium album, lambsquarters (Chenopodium album), read-out: Visual Growth Reduction (%) 14 Days After Application, CHEAL
[7] = Euphorbia heterophylla, wild poinsettia (Euphorbia heterophylla), read-out: Visual Growth Reduction (%) 14 Days After Application, EPHHL
[8] = Helianthus annuus, sunflower (Helianthus annuus), read-out: Visual Growth Reduction (%) 14 Days After Application, HELAN
[9] = Cyperus esculentus, yellow nutsedge (Cyperus esculentus), 14 d, read-out: Visual Growth Reduction (%) 14 Days After Application, CYPES
[10] = Echinochloa crus-galli, barnyardgrass (Echinochloa crus-galli), 14 d, read-out: Visual Growth Reduction (%) 14 Days After Application, ECHCG
[11] = Oryza sativa, rice (Oryza sativa), 14 d, read-out: Visual Growth Reduction (%) 14 Days After Application, ORYSA
[12] = Setaria faberi, giant foxtail (Setaria faberi), 14 d, read-out: Visual Growth Reduction (%) 14 Days After Application, SETFA
[13] = Triticum aestivum, wheat, spring (Triticum aestivum), 14 d, read-out: Visual Growth Reduction (%) 14 Days After Application, TRZAS
[14] = Zea mays, maize, corn (Zea mays), 14 d, read-out: Visual Growth Reduction (%) 14 Days After Application, ZEAMX
[15] = Cyperus esculentus, yellow nutsedge (Cyperus esculentus), 14 days after application, read-out: Visual Growth Reduction (%) 14 Days After Application CYPES
[16] = Echinochloa crus-galli, barnyardgrass (Echinochloa crus-galli), 14 days after application, read-out: Visual Growth Reduction (%) 14 Days After Application ECHCG
[17] = Oryza sativa, rice (Oryza sativa), 14 days after application, read-out: Visual Growth Reduction (%) 14 Days After Application ORYSA
[18] = Setaria faberi, giant foxtail (Setaria faberi), 14 days after application, read-out: Visual Growth Reduction (%) 14 Days After Application SETFA
[19] = Triticum aestivum, wheat, spring (Triticum aestivum), 14 days after application, read-out: Visual Growth Reduction (%) 14 Days After Application TRZAS
[20] = Zea mays, maize, corn (Zea mays), 14 days after application, read-out: Visual Growth Reduction (%) 14 Days After Application ZEAMX

melting point: 204 to 206 °C
SMILES: COc1c(N)nc(-c2ccc(Cl)c3occc23)nc1C(=O)O [Compound 2.22]
pest or weed control at 35 g/ha [1, 3]: 30 to 44%
pest or weed control at 70 g/ha [1, 3]: 30 to 44%
pest or weed control at 140 g/ha [1, 3]: 45 to 59%
pest or weed control at 35 g/ha [1, 4]: 95 to 100%
pest or weed control at 70 g/ha [1, 4]: 95 to 100%
pest or weed control at 140 g/ha [1, 4]: 95 to 100%
pest or weed control at 35 g/ha [1, 5]: 0 to 29%
pest or weed control at 70 g/ha [1, 5]: 45 to 59%
pest or weed control at 140 g/ha [1, 5]: 60 to 74%
pest or weed control at 35 g/ha [1, 6]: 95 to 100%
pest or weed control at 70 g/ha [1, 6]: 95 to 100%
pest or weed control at 140 g/ha [1, 6]: 95 to 100%
pest or weed control at 35 g/ha [1, 7]: 0 to 29%
pest or weed control at 70 g/ha [1, 7]: 0 to 29%
pest or weed control at 140 g/ha [1, 7]: 0 to 29%
pest or weed control at 35 g/ha [1, 8]: 75 to 84%
pest or weed control at 70 g/ha [1, 8]: 85 to 94%
pest or weed control at 140 g/ha [1, 8]: 95 to 100%
pest or weed control at 35 g/ha [2, 9]: 0 to 29%
pest or weed control at 70 g/ha [2, 9]: 0 to 29%
pest or weed control at 140 g/ha [2, 9]: 0 to 29%
pest or weed control at 35 g/ha [2, 10]: 0 to 29%
pest or weed control at 70 g/ha [2, 10]: 0 to 29%
pest or weed control at 140 g/ha [2, 10]: 0 to 29%
pest or weed control at 35 g/ha [2, 11]: 0 to 29%
pest or weed control at 70 g/ha [2, 11]: 0 to 29%
pest or weed control at 140 g/ha [2, 11]: 0 to 29%
pest or weed control at 35 g/ha [2, 12]: 0 to 29%
pest or weed control at 70 g/ha [2, 12]: 0 to 29%
pest or weed control at 140 g/ha [2, 12]: 0 to 29%
pest or weed control at 35 g/ha [2, 13]: 0 to 29%
pest or weed control at 70 g/ha [2, 13]: 0 to 29%
pest or weed control at 140 g/ha [2, 13]: 0 to 29%
pest or weed control at 35 g/ha [2, 14]: 0 to 29%
pest or weed control at 70 g/ha [2, 14]: 0 to 29%
pest or weed control at 140 g/ha [2, 14]: 0 to 29%

melting point: 219 to 221 °C
SMILES: COC(=O)c1nc(-c2cccc3sccc23)c(F)c(N)c1Cl [Compound 3.23]
pest or weed control at 35 g/ha [1, 3]: 0 to 29%
pest or weed control at 70 g/ha [1, 3]: 0 to 29%
pest or weed control at 140 g/ha [1, 3]: 0 to 29%
pest or weed control at 35 g/ha [1, 4]: 0 to 29%
pest or weed control at 70 g/ha [1, 4]: 0 to 29%
pest or weed control at 140 g/ha [1, 4]: 0 to 29%
pest or weed control at 35 g/ha [1, 5]: 0 to 29%
pest or weed control at 70 g/ha [1, 5]: 0 to 29%
pest or weed control at 140 g/ha [1, 5]: 0 to 29%
pest or weed control at 35 g/ha [1, 6]: 0 to 29%
pest or weed control at 70 g/ha [1, 6]: 45 to 59%
pest or weed control at 140 g/ha [1, 6]: 85 to 94%
pest or weed control at 35 g/ha [1, 7]: 0 to 29%
pest or weed control at 70 g/ha [1, 7]: 0 to 29%
pest or weed control at 140 g/ha [1, 7]: 0 to 29%
pest or weed control at 35 g/ha [1, 8]: 0 to 29%
pest or weed control at 70 g/ha [1, 8]: 0 to 29%
pest or weed control at 140 g/ha [1, 8]: 0 to 29%
pest or weed control at 35 g/ha [2, 15]: 0 to 29%
pest or weed control at 70 g/ha [2, 15]: 0 to 29%
pest or weed control at 140 g/ha [2, 15]: 0 to 29%
pest or weed control at 35 g/ha [2, 16]: 0 to 29%
pest or weed control at 70 g/ha [2, 16]: 0 to 29%
pest or weed control at 140 g/ha [2, 16]: 0 to 29%
pest or weed control at 35 g/ha [2, 17]: 0 to 29%
pest or weed control at 70 g/ha [2, 17]: 0 to 29%
pest or weed control at 140 g/ha [2, 17]: 0 to 29%
pest or weed control at 35 g/ha [2, 18]: 0 to 29%
pest or weed control at 70 g/ha [2, 18]: 0 to 29%
pest or weed control at 140 g/ha [2, 18]: 0 to 29%
pest or weed control at 35 g/ha [2, 19]: 0 to 29%
pest or weed control at 70 g/ha [2, 19]: 0 to 29%
pest or weed control at 140 g/ha [2, 19]: 0 to 29%
pest or weed control at 35 g/ha [2, 20]: 0 to 29%
pest or weed control at 70 g/ha [2, 20]: 0 to 29%
pest or weed control at 140 g/ha [2, 20]: 0 to 29%
